Assay results from US20060269482A1 (priority 2005, published 2006).

Legend:
[1] = tested on: Rb phosphorylation in cells; conditions: literature report; cited from earlier work
[2] = tested on: Rb phosphorylation in tumor xenografts; conditions: literature report; cited from earlier work
[3] = tested on: Rb phosphorylation in human PBMCs; test: Rb phosphorylation in human PBMCs stimulated ex vivo with PMA; assay type: cell-based
Description: Approximately 10 mls of blood was collected from five healthy human volunteers into sodium heparin treated Vacutainer blood collection tubes by Employee Health Services. PBMCs were separated using the Lymphocyte Separation Medium (LSM) and protocol supplied by ICN Biomedicals Inc. (Costa Mesa, Calif.). Briefly whole blood was diluted 1:1 with cold HBSS (Hanks Balanced Salt Solution), layered onto the LSM and centrifuged. The band of mononuclear cells above the LSM was collected, transferred to a new tube and washed once with cold HBSS. Cells were resuspended in RPMI 1640, 10% HI-FBS, 2 mM L-glutamine and 0.01 mg/ml Gentamicin Reagent Solution (GIBCO/Invitrogen). […]
(§1) PBMCs were collected by transferring the cells, including attached cells and those in suspension, into 50 ml tubes. […] Samples were sonicated on ice for 30 seconds, clarified by centrifugation at 16,000×g for 10 minutes at 4° C. and protein concentrations determined using Non-Interfering Protein Assay Kit (Geno Technology Incorporated, Maplewood, Mo.). […] For Western blotting, total Rb was detected using antibody from Pharmingen (BD Bioscience, San Diego, Calif.) at a dilution of 1:2000. Lysates were analysed by Western blotting for Rb phosphorylation using polyclonal antibodies against phosphorylated serine 795, serine 780, threonine 821 and serine 807/811 in human Rb (FIG. 8). […]

[4] = tested on: Rb phosphorylation in rat PBMCs; test: Rb phosphorylation in rat PBMCs following ex vivo PMA activation; assay type: cell-based; conditions: 300 ng/ml for 24 hours, Western blot
Description: PBMCs are not cycling cells and need to be stimulated with the mitogen PMA to enter the cell cycle.
Blood from three rats at the specified times was pooled (˜10 mls total) and PBMCs were separated using the Lymphocyte Separation Medium (LSM) and protocol supplied by ICN Biomedicals Inc. (Costa Mesa, Calif.). Briefly whole blood was diluted 1:1 with cold HBSS (Hanks Balanced Salt Solution), layered onto the LSM and centrifuged. The layer of mononuclear cells above the LSM was collected, transferred to a new tube and washed once with cold HBSS. Cells were resuspended in RPMI 1640, 10% HI-FBS, 2 mM L-glutamine and 0.01 mg/ml Gentamicin Reagent Solution (GIBCO/Invitrogen). Cells were seeded into T-75 cm^2 flasks at ≦1×10^7 cells in 20 mls medium and stimulated with 300 ng/ml of phorbol 12-myristate 13-acetate (PMA) for 24 hours. […]
as §1, with “1:2000.” for “1:2000. Lysates were analysed by Western blotting for Rb phosphorylation using polyclonal antibodies against phosphorylated serine 795, serine 780, threonine 821 and serine 807/811 in human Rb (FIG. 8).”

phosphorylated Rb = conditions: phase 1, in combination with docetaxel, cited from earlier work

CC(C)(C)c1cnc(CSc2cnc(NC(=O)C3CCNCC3)s2)o1 [BMS-387032]
Rb phosphorylation in cells [1]: Inhibition of Rb phosphorylation

CC[C@H](CO)Nc1nc(NCc2ccccc2)c2ncn(C(C)C)c2n1 [CYC 202, r-Roscovitine]
Rb phosphorylation in cells [1]: Inhibition of Rb phosphorylation

CC(=O)c1c(C)c2cnc(Nc3ccc(N4CCNCC4)cn3)nc2n(C2CCCC2)c1=O [PD 0332991]
Rb phosphorylation in tumor xenografts [2]: Inhibition of Rb phosphorylation
Rb phosphorylation in cells [1]: Inhibition of Rb phosphorylation

CCCCCCCCCCCCCC(=O)O[C@@H]1[C@@H](C)[C@@]2(O)[C@@H](C=C(CO)C[C@]3(O)C(=O)C(C)=C[C@@H]23)[C@@H]2C(C)(C)[C@]12OC(C)=O [PMA, phorbol 12-myristate 13-acetate]
Phosphorylation at serine 795 and serine 780 in human PBMCs ([3]; 300 ng/ml, 24, 48 and 72 hours post stimulation): not significant until 48-72 hours
Phosphorylation at serine 807/811 and threonine 821 sites in human PBMCs ([3]; 300 ng/ml, 24 hours post mitogen addition, five donors): Significant phosphorylation
Phosphorylated Rb in rat PBMCs after mitogen stimulation [4]: sufficient for detection of phosphorylated Rb

CN1CC[C@H](c2c(O)cc(O)c3c(=O)cc(-c4ccccc4Cl)oc23)[C@H](O)C1 [flavopiridol]
pRb in paired tumors (phosphorylated Rb; 6 paired tumors): no significant changes
pRb in buccal mucosa biopsies post treatment (phosphorylated Rb; patients with metastatic tumors): somewhat decreased
Rb phosphorylation in cells [1]: Inhibition of Rb phosphorylation
